Experimental data published in US20260007133A1, “HERBICIDAL COMPOSITION COMPRISING AZINE COMPOUNDS” (BASF SE, priority 2022, published 2026).

How the values were obtained:
Type in all cases: in vivo
Digitaria sanguinalis = test: Greenhouse post-emergence (POST) herbicidal test on DIGSA; settings: Digitaria sanguinalis, post-emergence, 480 h
Experimental: (§1) The culture containers used were plastic pots containing loamy sand with approximately 3.0% of humus as substrate. The seeds of the test plants were sown separately for each species.
(§2) For the post-emergence treatment, the test plants were grown to a plant height of from 3 to 15 cm, depending on the plant habit, and only then treated with the active compounds which had been suspended or emulsified in water. To this end, the test plants were either sown directly, and grown in the same containers, or they were first grown separately as seedlings and transplanted into the test containers a few days prior to treatment.
(§3) Depending on the species, the plants were kept at 10-25° C. and 20-35° C., respectively.
(§4) The test period extended over 2 to 4 weeks. During this time, the plants were tended and their response to the individual treatments was evaluated.
(§5) Evaluation was carried out using a scale from 0 to 100. 100 means no emergence of the plants, or complete destruction of at least the above-ground parts, and 0 means no damage or normal course of growth. A good herbicidal activity is given at values of at least 70, and very good herbicidal activity is given at values of at least 85.
(§6) If not stated differently, the respective components A and B, and if appropriate, C were formulated as a 5% by weight strength emulsion concentrate and, with addition of the amount of solvent system, introduced into the spray liquor used for applying the active compound.
(§7) As indicated application was either post emergent (POST) at the respective growth stage (GS) of the weed (BBCH code), or pre-emergent (PRE). […]

Setaria viridis = test: Greenhouse pre-emergence (PRE) herbicidal test on SETVI; settings: PRE, SETVI, 20 DAT
Excerpt: as §1
For the pre-emergence treatment, the active compounds, suspended or emulsified in water, were applied directly after sowing by means of finely distributing nozzles. The containers were irrigated gently to promote germination and growth and subsequently covered with transparent plastic hoods until the plants had rooted. This cover caused uniform germination of the test plants unless this was adversely affected by the active compounds.
as §3, §4, §5, §6, §7

Geranium pusillum = test: Greenhouse post-emergence (POST) herbicidal test on GERPU; settings: Geranium pusillum, post-emergence
Experimental: as §1, §2, §3, §4, §5, §6, §7

Echinochloa crus-galli = test: Greenhouse post-emergence (POST) herbicidal test on ECHCG; settings: Echinochloa crus-galli, post-emergence
Experimental: as §1, §2, §3, §4, §5, §6, §7

Euphorbia heterophylla [1] = test: Greenhouse post-emergence (POST) herbicidal test on EPHHL; settings: Euphorbia heterophylla, post-emergence
Experimental: as §1, §2, §3, §4, §5, §6, §7

Abutilon theophrasti [2] = test: Greenhouse pre-emergence (PRE) herbicidal test on ABUTH; settings: PRE, ABUTH
Experimental: as §1
(§8) The containers were irrigated gently to promote germination and growth and subsequently covered with transparent plastic hoods until the plants had rooted.
as §3, §4, §5, §7

Abutilon theophrasti [3] = test: Greenhouse post-emergence (POST) herbicidal test on ABUTH; settings: Abutilon theophrasti, post-emergence
Experimental: as §1, §2, §3, §4, §5, §6, §7

Lolium multiflorum = test: Greenhouse pre-emergence (PRE) herbicidal test on LOLMU; settings: Lolium multiflorum, pre-emergence, 480 h, PRE, LOLMU, use rate 0.5 gai/ha, 20 DAT; read-out: solo application % activity
Experimental: as §1, §8, §3, §4, §5, §7

Euphorbia heterophylla [4] = test: Greenhouse pre-emergence (PRE) herbicidal test on EPHHL; settings: Euphorbia heterophylla, pre-emergence, PRE, EPHHL
Experimental: as §1, §8, §3, §4, §5, §7

Ambrosia artemisiifolia = test: Greenhouse pre-emergence (PRE) herbicidal test on AMBEL; settings: PRE, AMBEL
Experimental: as §1, §8, §3, §4, §5, §7

Alopecurus myosuroides = test: Greenhouse pre-emergence (PRE) herbicidal test on ALOMY; settings: Alopecurus myosuroides, pre-emergence, 480 h, PRE, ALOMY, 20 DAT, read-out: solo application % activity
Experimental: as §1, §8, §3, §4, §5, §7

Amaranthus retroflexus = test: Greenhouse post-emergence (POST) herbicidal test on AMARE; settings: Amaranthus retroflexus, post-emergence, 432 h, POST, AMARE, 18 DAT
Experimental: as §1, §2, §3, §4, §5, §6, §7

Commelina benghalensis = test: Greenhouse pre-emergence (PRE) herbicidal test on COMBE; settings: PRE, COMBE, Pyroxsulam solo 0.25 gai/ha, 20 DAT
Experimental: as §1, §8, §3, §4, §5, §7

[5] = Pyroxsulam solo 0.25 gai/ha, 20 DAT

Molecule `C#CCN1C(=O)COc2cc(F)c(N3C(=O)C4=C(CCCC4)C3=O)cc21` [Flumioxazin, flumioxazin] has an inhibition at 1 g/ha (Digitaria sanguinalis; POST, DIGSA, use rate 1 gai/ha, 20 DAT, read-out: solo application % activity) of 10%, an inhibition at 2 g/ha (Digitaria sanguinalis; POST, DIGSA, use rate 2 gai/ha, 20 DAT, read-out: solo application % activity) of 25% and an inhibition at 0.5 g/ha (Setaria viridis; Setaria viridis, pre-emergence, 480 h, use rate 0.5 gai/ha, read-out: solo application % activity) of 0%. It also gave an inhibition at 1 g/ha (Setaria viridis; Setaria viridis, pre-emergence, 480 h, use rate 1 gai/ha, read-out: solo application % activity) of 0%, an inhibition at 2 g/ha (Setaria viridis; Setaria viridis, pre-emergence, 480 h, use rate 2 gai/ha, read-out: solo application % activity) of 0% and an inhibition at 2 g/ha (Geranium pusillum; 480 h, POST, GERPU, use rate 2 gai/ha, 20 DAT, read-out: solo application % activity) of 45%. It also gave an inhibition at 0.5 g/ha (Echinochloa crus-galli; 480 h, POST, ECHCG, use rate 0.5 gai/ha, 20 DAT, read-out: solo application % activity) of 0%, an inhibition at 1 g/ha (Echinochloa crus-galli; 480 h, POST, ECHCG, use rate 1 gai/ha, 20 DAT, read-out: solo application % activity) of 5% and an inhibition at 2 g/ha (Echinochloa crus-galli; 480 h, POST, ECHCG, use rate 2 gai/ha, 20 DAT, read-out: solo application % activity) of 30%. It also gave an inhibition at 1 g/ha (Euphorbia heterophylla [1]; 480 h, POST, EPHHL, use rate 1 gai/ha, 20 DAT, read-out: solo application % activity) of 60%, an inhibition at […] (Abutilon theophrasti [2]; Abutilon theophrasti, pre-emergence, 480 h, use rate 0.25 gai/ha, 20 DAT, read-out: solo application % activity) of 0% and an inhibition at 0.5 g/ha (Abutilon theophrasti [2]; Abutilon theophrasti, pre-emergence, 480 h, use rate 0.5 gai/ha, 20 DAT, read-out: solo application % activity) of 0%. It also gave an inhibition at 1 g/ha (Abutilon theophrasti [2]; Abutilon theophrasti, pre-emergence, 480 h, use rate 1 gai/ha, 20 DAT, read-out: solo application % activity) of 0%, an inhibition at 2 g/ha (Abutilon theophrasti [3]; 480 h, POST, ABUTH, use rate 2 gai/ha, 20 DAT, read-out: solo application % activity) of 70% and an inhibition at 0.5 g/ha (Lolium multiflorum) of 0%. It also gave an inhibition at […] (Euphorbia heterophylla [4]; 480 h, use rate 0.25 gai/ha, 20 DAT, read-out: solo application % activity) of 0%, an inhibition at 0.5 g/ha (Euphorbia heterophylla [4]; 480 h, use rate 0.5 gai/ha, 20 DAT, read-out: solo application % activity) of 5% and an inhibition at 1 g/ha (Euphorbia heterophylla [4]; 480 h, use rate 1 gai/ha, 20 DAT, read-out: solo application % activity) of 5%. For the same molecule, the inhibition at 2 g/ha (Euphorbia heterophylla [4]; 480 h, use rate 2 gai/ha, 20 DAT, read-out: solo application % activity) was 10%, the inhibition at 0.5 g/ha (Ambrosia artemisiifolia; Ambrosia artemisiifolia, pre-emergence, 480 h, use rate 0.5 gai/ha, 20 DAT, read-out: solo application % activity) was 0% and the inhibition at 2 g/ha (Ambrosia artemisiifolia; Ambrosia artemisiifolia, pre-emergence, 480 h, use rate 2 gai/ha, 20 DAT, read-out: solo application % activity) was 0%. For the same molecule, the inhibition at […] (Alopecurus myosuroides; use rate 0.25 gai/ha) was 0% and the inhibition at 0.5 g/ha (Alopecurus myosuroides; use rate 0.5 gai/ha) was 0%.

`CP(=O)(O)CCC(N)C(=O)O` (stereo not shown) [Glufosinate-Ammonium, glufosinate-ammonium] gave an inhibition at 150 g/ha (Digitaria sanguinalis; read-out: % activity) of 95%, an inhibition at 75 g/ha (Geranium pusillum; 480 h, read-out: % activity) of 35% and an inhibition at 75 g/ha (Echinochloa crus-galli; 480 h, read-out: % activity) of 0%. It also gave an inhibition at 150 g/ha (Echinochloa crus-galli; 480 h, read-out: % activity) of 30%, an inhibition at 150 g/ha (Euphorbia heterophylla [1]; 480 h, read-out: % activity) of 45% and an inhibition at 75 g/ha (Abutilon theophrasti [3]; 480 h, read-out: % activity) of 30%.

In the case of `C#CC(C)(C)NC(=O)c1cc(Cl)cc(Cl)c1` [Propyzamide, propyzamide], the pest or weed control at 1000 g/ha (Geranium pusillum; 432 h, POST, GERPU, Propyzamide solo 1000 gai/ha, 18 DAT) is reported as 20%, the pest or weed control at 250 g/ha (Echinochloa crus-galli; 432 h, POST, ECHCG, Propyzamide solo 250 gai/ha, 18 DAT, read-out: % activity) is reported as 0% and the pest or weed control at 1000 g/ha (Echinochloa crus-galli; 432 h, POST, ECHCG, Propyzamide solo 1000 gai/ha, 18 DAT) is reported as 30%. It also gave a pest or weed control at 250 g/ha (Euphorbia heterophylla [1]; 432 h, POST, EPHHL, Propyzamide solo 250 gai/ha, 18 DAT, read-out: % activity) of 0%, a pest or weed control at 250 g/ha (Abutilon theophrasti [2]; Abutilon theophrasti, pre-emergence, 432 h, Propyzamide solo 250 gai/ha, 18 DAT) of 0% and a pest or weed control at 1000 g/ha (Abutilon theophrasti [2]; Abutilon theophrasti, pre-emergence, 432 h, Propyzamide solo 1000 gai/ha, 18 DAT) of 10%. It also gave a pest or weed control at 1000 g/ha (Abutilon theophrasti [3]; 432 h, POST, ABUTH, Propyzamide solo 1000 gai/ha, 18 DAT) of 5%, a pest or weed control at 250 g/ha (Amaranthus retroflexus; Propyzamide solo 250 gai/ha, read-out: % activity) of 20% and a pest or weed control at 1000 g/ha (Amaranthus retroflexus; Propyzamide solo 1000 gai/ha) of 50%. It also gave a pest or weed control at 250 g/ha (Euphorbia heterophylla [4]; 432 h, Propyzamide solo 250 gai/ha, 18 DAT, read-out: % activity) of 10%, a pest or weed control at 1000 g/ha (Euphorbia heterophylla [4]; 432 h, Propyzamide solo 1000 gai/ha, 18 DAT) of 15% and a pest or weed control at 250 g/ha (Ambrosia artemisiifolia; Ambrosia artemisiifolia, pre-emergence, 432 h, Propyzamide solo 250 gai/ha, 18 DAT, read-out: % activity) of 0%.

With `COc1cc(OC)n2nc(NS(=O)(=O)c3c(C(F)(F)F)ccnc3OC)nc2n1` [Pyroxsulam, pyroxsulam] the “% activity” value (Setaria viridis; Pyroxsulam solo 0.25 gai/ha) was 10%, the “% activity” value (Abutilon theophrasti [2]; [5]) was 0% and the “% activity” value (Abutilon theophrasti [2]; Pyroxsulam solo 0.5 gai/ha, 20 DAT) was 5%. For the same molecule, the “% activity” value (Commelina benghalensis) was 10% and the “% activity” value (Ambrosia artemisiifolia; [5]) was 15%.
